The values below come from PMC8858318, “Targeting autophagy peptidase ATG4B with a novel natural product inhibitor Azalomycin F4a for advanced gastric cancer” (Cell Death & Disease, 2022).

One may read the Kd as the constant that tells how readily two partners part at equilibrium. The low end stands for tighter binding, the high end for weaker binding.

The target of the assay is T1, ATG4B (Homo sapiens, UniProt Q9Y4P1).
T1 sequence (Q9Y4P1 1-393): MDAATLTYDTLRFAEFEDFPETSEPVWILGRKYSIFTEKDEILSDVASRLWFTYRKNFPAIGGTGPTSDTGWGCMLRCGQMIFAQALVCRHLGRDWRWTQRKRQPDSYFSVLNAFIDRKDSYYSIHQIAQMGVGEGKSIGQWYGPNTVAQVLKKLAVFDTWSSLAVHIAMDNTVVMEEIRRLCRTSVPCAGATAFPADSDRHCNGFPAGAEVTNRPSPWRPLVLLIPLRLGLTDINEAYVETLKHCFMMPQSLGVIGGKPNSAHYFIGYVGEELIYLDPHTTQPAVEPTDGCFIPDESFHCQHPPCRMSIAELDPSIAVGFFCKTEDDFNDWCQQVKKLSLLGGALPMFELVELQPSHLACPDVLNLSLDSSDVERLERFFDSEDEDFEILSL
Put plainly: SPR (Biacore 8K, immobilized purified ATG4B); also FRET activity assay and gel-based FRET-GATE16 cleavage assay. The format is binding.

In the case of `CN=C(N)NCCC/C=C/CCCC(C)C1OC(=O)/C(C)=C\C=C/C(C)C(O)CC(O)C(C)C(O)CCC(C)C(O)CC2(O)OC(CC(OC(=O)CC(=O)O)CC(O)CC(O)CC(O)/C(C)=C\C=C/C1C)CC(O)C2O` (stereo not shown) [Am-F4a, Azalomycin F4a], the dissociation constant Kd turned out to be 11.8 µM. This counts as double-digit micromolar.
